We go through eight molecules from patent US20260242438A1 (INSTITUTE OF MATERIA MEDICA, CHINESE ACADEMY OF MEDICAL …, priority 2022, published 2026).

The target of this test is chymotrypsin (Bos taurus, UniProt P00766). Nature of the test: Determination of enzyme inhibitory activity against chymotrypsin (substrate AAPFpNA, OD 405 nm). The settings on record: for IC50: chymotrypsin 30 nM, AAPFpNA 0.5 mM, pH 7.8, 37° C.; for remaining activity at 0.001 µM: peptide 0.001 μM; for remaining activity at 0.01 µM: peptide 0.01 μM; for remaining activity at 0.1 µM: peptide 0.1 μM; for remaining activity at 0.2 µM: peptide 0.2 μM; for remaining activity at 0.4 µM: peptide 0.4 μM; for remaining activity at 1 µM: peptide 1 μM; for remaining activity at 10 µM: peptide 10 μM; for remaining activity at 100 µM: peptide 100 μM; for remaining activity at 0.8 µM: peptide 0.8 μM; for inhibitory activity reduced (fold): relative to CH10; for remaining activity at 0.0001 µM: peptide 0.0001 μM; for remaining activity at 0.02 µM: peptide 0.02 μM; for remaining activity at 0.04 µM: peptide 0.04 μM; for remaining activity at 0.08 µM: peptide 0.08 μM. Type of test: biochemical. As for the experimental part:
The substrates N-succinyl-Ala-Ala-Pro-Phe-p-nitroaniline (AAPFpNA) is used in competitive binding reaction to determine the inhibitory activities against α -chymotrypsin. Experiments for a-chymotrypsin was measured in 20 mM CaCl2, 50 mM Tris-HCl buffer (pH 7.8). The concentration of the peptide was measured using optical density (OD) at 280 nm. The Michaelis constant (Km) of the enzyme hydrolysis substrate is calculated from the initial rate of substrate hydrolysis at 405 nm. The absorbance value of the substrate was measured at 405 nm after complete hydrolysis. All data were processed using nonlinear regression.
(1) Added a total 190 μL of reaction buffer (20 mM CaCl2, 50 mM Tris-HCl (pH 7.8)), different concentrations of anti-chymorypsin peptides (CHs) into the pre-cold 96 well plate, followed by preheating at 37° C. for 5 min and centrifugated at 500 rpm for 1 min and allowed to stand for 4 minutes. Then added 8 μL of 750 nM chymotrypsin and incubated at 37° C. for 10 min, and centrifugated at 500 rpm for 1 min and allowed to stand for 9 minutes. Finally, added 2 μL of 50 mM AAPFpNA, and mixed by centrifugation at 500 rpm for 1 min. The plate was incubated at 37° C. for 90 min, and the absorbance value at 405 nm was measured. Three repetitions were made, and only reaction buffer and substrate were added in the blank control as the minimum absorption value (Min OD 405 nm); Only reaction buffer, enzyme and substrate were added in the negative control as the maximum absorption value (Max OD 405 nm).
(2) In the 200 μL of reaction system, the final concentrations of chymotrypsin and AAPFpNA were 30 nM and 0.5 mM, respectively.
Plotted the residual activity of enzyme with […] to obtain the half inhibitory concentration (IC50) of anti-chymorypsin peptides (CHs). Then, substituted it into the formula […]/(1+S/Km) (S, IC50, and Km were substrate concentration, half inhibitory concentration, and Michaelis constant, respectively) to obtain the inhibition constant Ki of anti-chymorypsin peptides (CHs).

The mark [1] stands for this setting: read-out: Residual activity of chymotrypsin.

Where a SMILES comes first, the peptide text is derived from it. Bridges are numbered along the chain shown (N, C = ends).

With `CC[C@H](C)[C@@H]1NC(=O)[C@H](CO)NC(=O)[C@H](Cc2ccc(O)cc2)NC(=O)[C@H]([C@@H](C)O)NC(=O)[C@@H](NC(=O)[C@@H](N)Cc2ccccc2)CSSC[C@@H](C(=O)N[C@@H](Cc2ccc(O)cc2)C(=O)N[C@@H](C)C(=O)O)NC(=O)[C@H](CCC(N)=O)NC(=O)[C@@H]2CCCN2C(=O)[C@@H]2CCCN2C1=O` [CH34] (H-FCTYSIPPQCYA-OH; disulfide 2-10; C-terminus assumed), the Ki stood at 160 nM and half-maximal inhibition (IC50) was put at 370 nM. Under setting [1], the remaining activity at 0.001 µM stood at 102.3 ± 0.8%, the remaining activity at 0.01 µM is 104.1 ± 0.5%, the remaining activity at 0.1 µM is 104.8 ± 0.6% and the remaining activity at 0.2 µM stood at 78.5 ± 2.5%. Moreover, under setting [1], the remaining activity at 0.4 µM turned out to be 45.5 ± 1.5%, the remaining activity at 1 µM stood at 17.8 ± 0.9%, the remaining activity at 10 µM worked out at 1.2 ± 0.1% and the remaining activity at 100 µM stood at 0.1%. For the same molecule, the remaining activity at 0.75 µM (peptide 0.75 μM, read-out: Residual activity of chymotrypsin) is 24.5 ± 0.9%.
As for `CC[C@H](C)[C@@H]1NC(=O)[C@H](CO)NC(=O)[C@H](Cc2ccc(O)cc2)NC(=O)[C@H]([C@@H](C)O)NC(=O)[C@@H](NC(=O)[C@@H](N)Cc2ccccc2)CSSC[C@@H](C(=O)N[C@@H](CCCNC(=N)N)C(=O)O)NC(=O)[C@H](CCC(N)=O)NC(=O)[C@@H]2CCCN2C(=O)[C@@H]2CCCN2C1=O` [CH35] (H-FCTYSIPPQCR-OH; disulfide 2-10; C-terminus assumed), the Ki is 190 nM, half-maximal inhibition (IC50) required 450 nM and the “inhibitory activity reduced (fold)” value is reported as around 7 times. In addition, under setting [1], the remaining activity at 0.001 µM was found to be 100.8 ± 0.9%, the remaining activity at 0.01 µM is 101 ± 1.2%, the remaining activity at 0.1 µM came to 101 ± 2.6% and the remaining activity at 0.2 µM stood at 78.9 ± 2.9%. Moreover, under setting [1], the remaining activity at 0.4 µM turned out to be 58.8 ± 3.4%, the remaining activity at 0.8 µM amounted to 27.3 ± 2.9%, the remaining activity at 1 µM was 16.6 ± 4.7% and the remaining activity at 10 µM stood at 2.6 ± 0.2%. Under setting [1], the remaining activity at 100 µM stood at 0%.
Take `CC[C@H](C)[C@@H]1NC(=O)[C@H](CO)NC(=O)[C@H](Cc2ccc(O)cc2)NC(=O)[C@H]([C@@H](C)O)NC(=O)[C@@H](NC(=O)[C@@H]2CCCN2)CSSC[C@@H](C(=O)N[C@@H](Cc2ccc(O)cc2)C(=O)O)NC(=O)[C@H](CCC(N)=O)NC(=O)[C@@H]2CCCN2C(=O)[C@@H]2CCCN2C1=O` [CH51] (H-PCTYSIPPQCY-OH; disulfide 2-10; C-terminus assumed): the affinity, expressed as Ki, was 200 nM; the IC50 was determined as 460 nM; the “inhibitory activity reduced (fold)” value is given as around 7 times. In addition, under setting [1], the remaining activity at 0.001 µM came to 100 ± 1.2%, the remaining activity at 0.01 µM was 100 ± 0.2%, the remaining activity at 0.1 µM is 95.4 ± 2.2% and the remaining activity at 0.2 µM was determined as 80.3 ± 3.9%. Further, under setting [1], the remaining activity at 0.4 µM turned out to be 54.2 ± 1.8%, the remaining activity at 0.8 µM turned out to be 31.2 ± 1.6%, the remaining activity at 1 µM is 24.3 ± 2.4% and the remaining activity at 10 µM is 3 ± 0.2%. Besides, under setting [1], the remaining activity at 100 µM was 0.3%.
In turn, `CC[C@H](C)[C@@H]1NC(=O)[C@@H]2CCCN2C(=O)[C@@H]2CCCN2C(=O)[C@H]([C@@H](C)CC)NC(=O)[C@H](CO)NC(=O)[C@H](Cc2ccccc2)NC(=O)[C@H]([C@@H](C)O)NC(=O)[C@@H](NC(=O)[C@H](CCCNC(=N)N)NC(=O)CN)CSSC[C@@H](C(=O)N[C@@H](Cc2ccccc2)C(=O)N2CCC[C@H]2C(=O)N[C@@H](CC(=O)O)C(=O)O)NC1=O` [CH54] (H-GRCTFSIPPICFPD-OH; disulfide 3-11; C-terminus assumed) registered a Ki of 10 nM and an IC50 of 30 nM. Further, under setting [1], the remaining activity at 0.0001 µM was found to be 100.6 ± 0.9%, the remaining activity at 0.001 µM came to 101.7 ± 0.6%, the remaining activity at 0.01 µM is 100 ± 2.9% and the remaining activity at 0.02 µM was 68.8 ± 4%. In addition, under setting [1], the remaining activity at 0.04 µM was found to be 34.2 ± 3.9%, the remaining activity at 0.08 µM was 15.2 ± 1.9%, the remaining activity at 0.1 µM is 13.8 ± 3.3% and the remaining activity at 1 µM is 0.4 ± 0.2%. Also, the remaining activity at 10 µM under setting [1] was -0.1%.
Consider `CC[C@H](C)[C@@H]1NC(=O)[C@@H]2CCCN2C(=O)[C@@H]2CCCN2C(=O)[C@H]([C@@H](C)CC)NC(=O)[C@H](CO)NC(=O)[C@H](Cc2ccc(O)cc2)NC(=O)[C@H]([C@@H](C)O)NC(=O)[C@@H](NC(=O)[C@H](CCCNC(=N)N)NC(=O)CN)CSSC[C@@H](C(=O)N[C@@H](Cc2ccccc2)C(=O)N2CCC[C@H]2C(=O)N[C@@H](CC(=O)O)C(=O)O)NC1=O` [CH55] (H-GRCTYSIPPICFPD-OH; disulfide 3-11; C-terminus assumed), for which the Ki was 8.6 nM and the midpoint of inhibition, the IC50, lay at 20 nM. Also, under setting [1], the remaining activity at 0.0001 µM was found to be 102.1 ± 1%, the remaining activity at 0.001 µM was 101.6 ± 0.9%, the remaining activity at 0.02 µM worked out at 45.8 ± 10% and the remaining activity at 0.04 µM worked out at 21.8 ± 4.2%. Moreover, under setting [1], the remaining activity at 0.08 µM turned out to be 11.6 ± 1.2%, the remaining activity at 0.1 µM stood at 8 ± 2.4%, the remaining activity at 1 µM was 0.9 ± 0.1% and the remaining activity at 10 µM was found to be 0.1%. Also, the remaining activity at 0.015 µM (peptide 0.015 μM, read-out: Residual activity of chymotrypsin) came out at 68.1 ± 3.7%.
Consider `CC[C@H](C)[C@@H]1NC(=O)[C@@H]2CCCN2C(=O)[C@@H]2CCCN2C(=O)[C@H]([C@@H](C)CC)NC(=O)[C@H](CO)NC(=O)[C@H](Cc2ccc(O)cc2)NC(=O)[C@H]([C@@H](C)O)NC(=O)[C@@H](NC(=O)[C@H](CCCNC(=N)N)NC(=O)CN)CSSC[C@@H](C(=O)N[C@@H](Cc2ccccc2)C(=O)N2CCC[C@H]2C(=O)O)NC1=O` [CH56] (H-GRCTYSIPPICFP-OH; disulfide 3-11; C-terminus assumed), for which affinity was put at a Ki of 270 nM and inhibition was half-maximal at 620 nM (IC50). Further, the “IC50 reduced (fold)” value (relative to CH55) is listed as 30 times.
The molecule `CC[C@H](C)[C@@H]1NC(=O)[C@@H]2CCCN2C(=O)[C@@H]2CCCN2C(=O)[C@H]([C@@H](C)CC)NC(=O)[C@H](CO)NC(=O)[C@H](Cc2ccc(O)cc2)NC(=O)[C@H]([C@@H](C)O)NC(=O)[C@@H](NC(=O)[C@H](CCCNC(=N)N)NC(=O)CN)CSSC[C@@H](C(=O)N[C@@H](Cc2ccccc2)C(=O)O)NC1=O` [CH57] (H-GRCTYSIPPICF-OH; disulfide 3-11; C-terminus assumed) yielded a Ki of 20 nM and an IC50 of 40 nM. Further, under setting [1], the remaining activity at 0.0001 µM was found to be 99 ± 1.3%, the remaining activity at 0.001 µM is 100.2 ± 0.3%, the remaining activity at 0.01 µM stood at 98 ± 5.1% and the remaining activity at 0.02 µM is 66 ± 7.5%. Further, under setting [1], the remaining activity at 0.04 µM is 48.4 ± 5.8%, the remaining activity at 0.08 µM turned out to be 19.1 ± 4.6%, the remaining activity at 1 µM was found to be 0.9 ± 0.3% and the remaining activity at 10 µM is -0.2 ± 0.2%. For the same molecule, the remaining activity at 0.06 µM (peptide 0.06 μM, read-out: Residual activity of chymotrypsin) worked out at 38.1 ± 7.9%.
On to `CC[C@H](C)[C@@H]1NC(=O)[C@@H]2CCCN2C(=O)[C@@H]2CCCN2C(=O)[C@H]([C@@H](C)CC)NC(=O)[C@H](CO)NC(=O)[C@H](Cc2ccc(O)cc2)NC(=O)[C@H]([C@@H](C)O)NC(=O)[C@@H](NC(=O)[C@@H](N)CCCNC(=N)N)CSSC[C@@H](C(=O)N[C@@H](Cc2ccccc2)C(=O)O)NC1=O` [CH58] (H-RCTYSIPPICF-OH; disulfide 2-10; C-terminus assumed), for which the affinity, expressed as Ki, was 120 nM and the IC50 amounted to 270 nM.

For orientation: Ki means the equilibrium dissociation constant of an inhibitor or competing ligand from its target. As a reminder, the IC50 is the point on the concentration scale where inhibition reaches its midpoint.
